Measured values as given in US20030207830A1, “Mutant NDP kinases for antiviral nucleotide analog activation and therapeutic uses thereof” (priority 2002, published 2003).
pKd: −log10 of the molar value.

Legend:
[1] = target: T1, Dictyostelium NDP Kinase N119S (Dictyostelium discoideum, UniProt P22887, N119S); assay: Pre-steady-state fluorescence stopped-flow phosphotransfer from nucleoside triphosphates, N119S Dd-NDPK; type: biochemical; details: pre-steady state, stopped-flow; average of three determinations
T1 construct: made in house
T1 sequence (P22887 whole entry N119S): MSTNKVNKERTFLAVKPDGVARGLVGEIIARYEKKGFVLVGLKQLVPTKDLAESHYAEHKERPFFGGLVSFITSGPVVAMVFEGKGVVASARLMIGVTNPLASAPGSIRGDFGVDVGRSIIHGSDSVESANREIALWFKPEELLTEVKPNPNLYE
Method: (§1) All numbers in italics have already been published (Schneider, 1998, 2000) The kinetic constants were measured at the pre-steady-state level using a fluorescence stopped-flow device. The binding constants were determined at equilibrium by recording the increase in fluorescence (Schneider, 2000). Values are the average of three independent determinations.
(§2) As the diphosphate form of analogs were not always available, the triphosphate analogs were used to study phosphate transfer in reaction as in Scheme I. Experiments were performed with an Hi-Tech DX2 microvolume stopped-flow reaction (Schneider, 1998) at Aexc=296 nm (for Ado derivatives) or […] (for other nucleotides), 2 mm excitation slit and a 320 nm cutoff filter at the emission. After mixing NDPK (1 μM) and NTP or an analogTP (10-500 μM), the intrinsic protein fluorescence was recorded for 10-200 sec. In each experiment, 400 pairs of data were recorded, and the data from 3-4 identical experiments were averaged and fitted to a number of non-linear analytical equations using the software provided by Hi-Tech. All curves fitted to single exponentials.
(§3) The data were analyzed using the reaction scheme: [drawing 1]
(§4) In both the forward and the reverse reactions, the product concentration remains very low, thus the product binding can be neglected, and the observed single step could be attributed to the phosphotransfer (Schneider, 1998). The rate of this observed single step is: [formula]
(§5) and reaches a limiting value (k+2) at NTP saturation. Saturation could not be obtained with the concentrations of any NTP used here. Therefore, catalytic efficiencies of phosphorylation (CEphos=k+2/(k−1/k+1)=k+2/KS) were measured, which are equivalent to second order constants and allow a reliable comparison of a variety of NDP kinase substrates.

[2] = target: T2, Dictyostelium NDP Kinase wt (Dictyostelium discoideum, UniProt P22887); assay: Pre-steady-state fluorescence stopped-flow phosphotransfer from nucleoside triphosphates, wild type Dd-NDPK; type: biochemical; details: average of three determinations
T2 construct: made in house
T2 sequence (P22887 whole entry): as the sequence (P22887 whole entry N119S) above, with S119N counted along it
Method: (§6) The binding constants were determined at equilibrium by recording the increase in fluorescence (Schneider, 2000).
After mixing NDPK (1 μM) and NTP or an analogTP (10-500 μM), the intrinsic protein fluorescence was recorded for 10-200 sec. In each experiment, 400 pairs of data were recorded, and the data from 3-4 identical experiments were averaged and fitted to a number of non-linear analytical equations using the software provided by Hi-Tech.
as §3
The rate of this observed single step is: [formula]
(§7) and reaches a limiting value (k+2) at NTP saturation. […] Therefore, catalytic efficiencies of phosphorylation (CEphos=k+2/(k−1/k+1)=k+2/KS) were measured, which are equivalent to second order constants and allow a reliable comparison of a variety of NDP kinase substrates.

[3] = target: T3, Dictyostelium discoideum NDP kinase (Dd-NDPK), wild type (Dictyostelium discoideum, UniProt P22887); assay: Pre-steady-state phosphotransfer, fluorescence stopped-flow; type: biochemical; details: catalytic efficiency of phosphotransfer, wt
T3 construct: made in house
T3 sequence (P22887 whole entry): as the sequence (P22887 whole entry N119S) above, with S119N counted along it
Method: (§8) (A) Kinetics of reaction of phosphorylated Dictyostelium wild type and N119S NDP kinases by 100 μM Acyclovir diphosphate (Acy-DP). The phosphorylated enzyme was prepared with a stoichiometry #1 as described (Deville-Bonne 1996). The kinases were preincubated with ATP in excess in buffer T (50 mM Tris-HCl, pH 7.5, 5 mM MgCl2 and 75 mM KCl). The increase in fluorescence upon mixing the phospho-enzyme (1 μM, final concentration) with Acy-DP in buffer T at 20° C. was monitored with a stopped-flow. The solid lines represent the best fit of each curve to a monoexponential.
(§9) (B) Concentration dependence of the rate constant on Acy-DP concentation. The pseudo-first order rate constant for the reaction (kobs) was plotted against Acy-DP.
as §1
(§10) Wild type human NDPK-A and the mutants were expressed and purified according to Schneider et al., 2000, Mol Pharm. Recombinant wild type and mutant Dd-NDPK were obtained as described (Schneid, 1998a), except for N119Y NDP kinase which was partially purified by Q sepharose FF chromatography. Each protein was characterized by […] electrophoresis. The concentration of 17 kDa subunits of the enzyme was either determined by Bradford assay ([…]) or using an absorbance coefficient of ΔA^280=1.249 for a 1 mg/mL solution of human wild type and N115S NDPK-A, and =0.55 for wild type and mutant N119S, N119T Dd-NDP kinases, respectively.
as §2, §3, §4, §5

[4] = target: T4, Dictyostelium discoideum NDP kinase (Dd-NDPK) variant N119S, SEQ ID NO: 1 (Dictyostelium discoideum, UniProt P22887, N119S); assay: as above; type: biochemical; details: for k2/Ks: catalytic efficiency of phosphotransfer, N119S, pre-steady state
T4 construct: made in house
T4 sequence (P22887 whole entry N119S): as the sequence (P22887 whole entry N119S) above
Method: as §8, §9, §1, §10, §2, §3, §4, §5

[5] = target: T5, Dictyostelium discoideum NDP kinase inactive variant EI (H122G-F64W) (Dictyostelium discoideum, UniProt P22887, F64W/H122G); assay: biochemical; type: binding
T5 construct: made in house
T5 sequence (P22887 whole entry F64W/H122G): as the sequence (P22887 whole entry N119S) above, with F64W, S119N, H122G counted along it
Method: as §6
(§11) Analog binding affinity was measured using a variant of Dd-NDPK (EI) as described (Schneider, 2000). […] The mutation N119S was inserted in EI in order to measure the nucleotide affinity by fluorescence titration.
(§12) Altered bases as compared to the wild type sequence are underlined in bold. Sequences were checked by automatic sequencing. The mutant EI-N119S was obtained by mutation of the previously described F64W-H122G mutated NDP kinase (here called EI) (Schneider 2000).

[6] = target: T6, Dictyostelium discoideum NDP kinase inactive variant EI-N119S (H122G-F64W-N119S) (Dictyostelium discoideum, UniProt P22887, F64W/H122G/N119S); assay: biochemical; type: binding
T6 construct: made in house
T6 sequence (P22887 whole entry F64W/N119S/H122G): as the sequence (P22887 whole entry N119S) above, with F64W, H122G counted along it
Method: as §6, §11, §12

[7] = target: T7, human NDP kinase A (NDPK-A, nm23-H1), wild type (Homo sapiens, UniProt P15531); assay: Pre-steady-state phosphotransfer, fluorescence stopped-flow; type: biochemical; details: for k2/Ks: catalytic efficiency of phosphotransfer, NDPK-A, pre-steady state
T7 construct: made in house
T7 sequence (P15531 whole entry): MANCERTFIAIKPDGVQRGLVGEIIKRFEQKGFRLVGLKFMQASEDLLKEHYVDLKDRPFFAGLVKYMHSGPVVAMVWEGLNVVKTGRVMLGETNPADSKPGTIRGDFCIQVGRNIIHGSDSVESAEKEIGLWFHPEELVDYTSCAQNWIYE
Method: (§13) FIG. 3 depicts the catalytic efficiency of NDPK-A and mutants for nucleoside analogs. The rates of phosphorylation of pure recombinant NDP kinases (1 μM) were measured at the pre-steady state in a fluorescence stopped-flow with d4T-TP (10 to 80 μM). The catalytic efficiency (expressed in M^−1s^−1) was determined from the variation of the rate as a function of analog as shown in FIG. 2 (▾, NDPK-A, ♦ L55H, ● N115S, ▪ L55H-N115S).
(§14) The activity assays were performed at the pre-steady state level.
as §10
as §2, with “Hi-Tech.” for “Hi-Tech. All curves fitted to single exponentials.”
as §3, §4, §7

[8] = target: T8, human NDP kinase A (NDPK-A) variant L55H-N115S, SEQ ID NO: 3 (Homo sapiens, UniProt P15531, L55H/N115S); assay: as above; type: biochemical; details: for Specificity change (R): ratio of catalytic efficiencies analog vs natural nucleotide, mutant vs wild type; for enhancement of ability to phosphorylate: substitution of Asn 115 for Ser and Leu 55 for His
T8 construct: made in house; host or cells: E. coli
T8 sequence (P15531 whole entry L55H/N115S): as the sequence (P15531 whole entry) above, with L55H, N115S counted along it
Method: as §13, §14
(§15) R, the specificity change, is the ratio of the catalytic efficiencies (for analog versus natural nucleotide) of the mutant compared to the wild type enzyme.
as §10
as §2, with “Hi-Tech.” for “Hi-Tech. All curves fitted to single exponentials.”
as §3, §4, §7

[9] = target: T9, human NDP kinase A (NDPK-A) variant L55H (Homo sapiens, UniProt P15531, L55H); assay: as above; type: biochemical; details: for k2/Ks: catalytic efficiency of phosphotransfer; for Specificity change (R): ratio of catalytic efficiencies analog vs natural nucleotide, mutant vs wild type
T9 construct: made in house; host or cells: E. coli
T9 sequence (P15531 whole entry L55H): as the sequence (P15531 whole entry) above, with L55H counted along it
Method: as §13, §14, §15, §10
as §2, with “Hi-Tech.” for “Hi-Tech. All curves fitted to single exponentials.”
as §3, §4, §7

[10] = target: T10, human NDP kinase A (NDPK-A) variant N115S, SEQ ID NO: 2 (Homo sapiens, UniProt P15531, N115S); assay: as above; type: biochemical; details: for k2/Ks: catalytic efficiency of phosphotransfer; for Specificity change (R): ratio of catalytic efficiencies analog vs natural nucleotide, mutant vs wild type
T10 construct: made in house; host or cells: E. coli
T10 sequence (P15531 whole entry N115S): as the sequence (P15531 whole entry) above, with N115S counted along it
Method: as §13, §14, §15, §10
as §2, with “Hi-Tech.” for “Hi-Tech. All curves fitted to single exponentials.”
as §3, §4, §7

| enhancement of ability to phosphorylate [8] | SMILES | k2/Ks [3] | k2/Ks [4] | pKd [5] | pKd [6] | k2/Ks [7] | Specificity change (R) [8] | k2/Ks ([9]; L55H, pre-steady state) | Specificity change (R) [9] | k2/Ks ([10]; N115S, pre-steady state) | Specificity change (R) [10] | further results |
| --- | --- | --- | --- | --- | --- | --- | --- | --- | --- | --- | --- | --- |
| – | Nc1ncnc2c1ncn2[C@@H]1O[C@H](COP(=O)(O)OP(=O)(O)OP(=O)(O)O)[C@@H](O)[C@H]1O [ATP] | 4.5e+06 M⁻¹ s⁻¹ | 250000 M⁻¹ s⁻¹ | 6.70 | 5.62 | – | – | – | – | – | – | k2/Ks N119S (catalytic efficiency of phosphotransfer) [1]: 250000 M⁻¹ s⁻¹; k2/Ks wt (catalytic efficiency of phosphotransfer) [2]: 4.5e+06 M⁻¹ s⁻¹ |
| – | Nc1nc2c(ncn2COCCOP(=O)(O)OP(=O)(O)OP(=O)(O)O)c(=O)[nH]1 [acyclovirTP] | 350 M⁻¹ s⁻¹ | 1650 M⁻¹ s⁻¹ | 3.72 | 4.70 | 25 M⁻¹ s⁻¹ | (460) | 160 M⁻¹ s⁻¹ | (3.4) | 250 M⁻¹ s⁻¹ | (150) | ranking as analog substrate ([4]; N119S NDP kinase): best analog substrate; increase of affinity by Ser (N119S) ([6]; relative KD, EI versus EI-N119S): 10 fold; k2/Ks ([8]; catalytic efficiency of phosphotransfer, L55H-N115S, pre-steady state): 2600 M⁻¹ s⁻¹ |
| 200-300 times | Nc1nc2c(ncn2COCCO)c(=O)[nH]1 [acyclovir] | – | – | – | – | – | – | – | – | – | – | – |
| – | Cc1cn([C@H]2C=C[C@@H](COP(=O)(O)OP(=O)(O)OP(=O)(O)O)O2)c(=O)[nH]c1=O [d4T-TP, dideoxy, didehydro-TTP] | – | – | – | – | 700 M⁻¹ s⁻¹ | (210) | 1280 M⁻¹ s⁻¹ | (10) | 6250 M⁻¹ s⁻¹ | (120) | times more slowly than with dTTP ([7]; NDPK-A wild type): 1700 times; factor of rate versus wild type NDPK-A ([8]; L55H-N115S, pre-steady state): 80; reactivity compared with dTTP ([8]; double mutant, catalytic efficiency): eight fold less; reaction rate compared with Dd-NDPK ([9]; L55H mutant): at the same rate as Dd-NDPK; factor of rate versus wild type NDPK-A ([9]; L55H, pre-steady state): 9; factor of rate versus wild type NDPK-A ([10]; N115S, pre-steady state): 1.8 |
| 200-300 times | Cc1cn([C@H]2C=C[C@@H](CO)O2)c(=O)[nH]c1=O [d4T] | – | – | – | – | – | – | – | – | – | – | – |
